Assay results: patent publication US20220054588A1, “USE OF SAP FOR THE TREATMENT OF EUROTIOMYCETES FUNGI INFECTIONS” (HUMANITAS MIRASOLE S.P.A., priority 2018, published 2022)

B1: recombinant murine SAP: recombinant murine SAP from mouse myeloma cell line NSO (R&D Systems) (protein, UniProt P12246 21-224, looked up)
Serum amyloid P-component: QTDLKRKVFVFPRESETDHVKLIPHLEKPLQNFTLCFRTYSDLSRSQSLFSYSVKGRDNELLIYKEKVGEYSLYIGQSKVTVRGMEEYLSPVHLCTTWESSSGIVEFWVNGKPWVKKSLQREYTVKAPPSIVLGQEQDNYGGGFQRSQSFVGEFSDLYMWDYVLTPQDILFVYRDSPVNPNILNWQALNYEINGYVVIRPRVWD

How the values were obtained:
A. fumigatus conidia = test: FACS binding of biotin-conjugated murine SAP to A. fumigatus conidia, with competition; set-up: species or system Aspergillus fumigatus; details: Sap 10 μg/ml
Description: FIG. 1 depicts the interaction of SAP with A. fumigatus conidia in mice. a) induction of SAP circulating levels after i.t. injection of 5×10^7 A. fumigatus (AF) conidia; LPS, 0.8 mg/Kg. Mean±SD. c) FACS analysis of binding of biotin-conjugated (b-) murine SAP (Sap; 10 μg/ml) to viable dormant or germinating conidia of AF (1×10^8). Human SAP (50 μg/ml) and CRP (50 μg/ml) were also used. Mean±SD of one quadruplicate experiment of two performed.
FIG. 10 depicts the susceptibility to A. fumigatus associated with single or double deficiency for SAP and PTX3. a and b, survival of wt and Apcs^−/−, Ptx3^−/− and Apcs^−/−, Ptx3^−/− mice after i.t. injection of 1×10^8 (a) or 5×10^7 (b) conidia. a, wt, n=9 (a, b); n=9 (a, b); Ptx3^−/−, n=7 (a) or n=10 (b); Ptx3^−/−, n=5 (a) or n=12 (b). a, b, P<0.05, wt vs. Apcs^−/− P<0.01 wt vs. Apcs^−/−, Ptx3^−/−; P=0.06, Apcs^−/−, Ptx3^−/− vs. Ptx3^−/− (Mantel-Cox test). a) Curves of wt and Apcs^−/− refer to the same ones shown in FIG. 2a-c FACS analysis of Sap (range from 0.1 to 10 μg/ml) binding to viable AF conidia (1×10^8) in presence of Ptx3 (50 μg/ml). An anti-Sap monoclonal antibody (non-reactive to Ptx3) was used. Mean±SD of a triplicate. **, P<0.01;***, P<0.005;****, P<0.0001 (unpaired t-test).
(§1) Binding of SAP. Conidia of A. fumigatus and A. flavus (1×10^8 CFU) were cultured 4 and 16 h under static condition in Sabouraud medium to respectively allow conidia swelling and germination. Blastospores and yeast of Candida albicans were prepared as previously described (Santus et al., 2017). Yeast (8×10^6/ml) were incubated at 37° C. for hyphal induction. Formation of hyphae was evaluated under a microscope at different time points until its amount was assessed at 95%. […] After extensive washing, samples were incubated (30 min, r. t.) with Alexa Fluor® 647-conjugated streptavidin and binding was evaluated by FACS as frequency and MFI and visualized by confocal microscopy as described. […]

Candida albicans = test: FACS binding of biotin-conjugated murine SAP to Candida albicans, with competition
Description: FIG. 16 depicts the binding of Sap on Candida. a) FACS analysis of binding of biotin-conjugated (b-) murine SAP (Sap; 10 μg/ml) to bastospore, yeast and hyphae of Candida albicans (1×10^8). Human SAP (50 μg/ml) was also used to compete binding of Sap. […] Survival of wt and Apcs^−/− mice after retroorbital injection of 1×10^6 blastospores of Candida albicans. wt, n=10; Apcs^−/− n=12.
as §1, with “95%. After washing with PBS^2+, pH 7.4, containing 0.01% (vol/vol) Tween-20 ® (Merck-Millipore), Cells (1×10^7 CFU) were incubated (1 h, r. t.) with biotin-labelled murine SAP (R&D Systems) at concentrations ranging from 0.1 to 10 μg/ml in PBS^2+, pH 7.4, containing 2% BSA (Sigma-Aldrich).” for “95%.”

human neutrophils = test: Phagocytosis of A. fumigatus conidia by isolated human neutrophils in normal or complement-depleted human sera; assay type: cell-based
Description: FIG. 8 depicts the initiation of classical complement activation at the bases of SAP-mediated phagocytosis. a) fluorescein-labelled AF conidia (1.6×10^6) phagocytosis by freshly isolated human neutrophils (2×10^5) in presence of sera depleted (−) from complement components and the effect of SAP opsonisation after 1 and 30 min AF conidia (2×10^8) opsonisation with 100 μg of human native SAP. 5% (left) or 10% (right) of human sera were used. Mean±SEM;*, P<0.05;**, P<0.01;***, P<0.005;***, P<0.0001 (Mann-Whitney test). b) FACS analysis of C1q deposition on AF conidia (1×10^7) in presence of plasma from wt or Apcs^−/− mice. Mean±SEM;*, P=0.05.
Human neutrophils were isolated from fresh whole blood of healthy volunteers through separation from erythrocytes by 3% dextran (GE Healthcare Life Sciences) density gradient sedimentation followed by Ficoll-Paque PLUS (GE Healthcare Life Sciences) and 62% Percoll® (Sigma-Aldrich) centrifugation as previously described (Moalli et al., 2010). Purity, determined by FACS analysis on forward scatter/side scatter parameters, was routinely >98%. 1×10^5 neutrophils were incubated for 1 and 30 min at 37° C. in 50 μl RPMI-1640 medium with 5 and 10% normal human serum (NS) or complement depleted sera and 1×10^5 FITC-labelled A. fumigatus conidia. Cells were transferred on ice and, after washing with PBS, pH 7.4, containing 10 mM EDTA and 0.2% bovine serum albumin (BSA; Sigma-Aldrich), FITC fluorescence in neutrophils (CD45-positive cells, neutrophils defined as FSC-A^high/SSC-A^high) was analysed by BD FACS Canto™ II Flow Cytometer (BD Biosciences). NS and sera depleted for C3, C1q, MBL, FB and FH were all obtained from CompTech (Complement Technology, Inc., USA).

Row | Molecule | competition of murine SAP binding to A. fumigatus conidia (A. fumigatus conidia; competitor 50 μg/ml) | competition of Sap binding to Candida albicans (Candida albicans; competitor 50 μg/ml) | potentiation of phagocytosis (human neutrophils; C1q-depleted serum) | potentiation of phagocytosis (human neutrophils; C3-depleted serum) | potentiation of phagocytosis (human neutrophils; MBL-depleted serum 5%) [%] | potentiation of phagocytosis (human neutrophils; MBL-depleted serum 10%) [%] | potentiation of phagocytosis (human neutrophils; normal human serum 5%) [%] | potentiation of phagocytosis (human neutrophils; normal human serum 10%) [%] | binding to A. fumigatus conidia (A. fumigatus conidia; FACS and confocal microscopy) | binding to blastospores, yeasts and hyphae of Candida albicans (Candida albicans; Sap 10 μg/ml)
1 | human native SAP: Native SAP from human serum purchased by Merck-Millipore; Serum Amyloid P component, SEQ ID NO: 1 | competed | competed | but not | but not | 55.5±17.0 | 19.8±6.1 | 37.4±10.3 | 18.3±2.0 | – | –
2 | B1 | – | – | – | – | – | – | – | – | bound viable dormant, swollen and germinated conidia | bound with low affinity
